Measured values: patent publication US8476276B2, “Pharmaceutical compositions based on kinin B2 receptor antagonists and corticosteroids, and their use” (Istituto Luso Farmaco d'Italia S.p.A., priority 2008, dated 2013)

Key:
[1] = system: carrageenan-induced joint oedema; assay: Carrageenan-induced knee arthritis, joint oedema (knee joint diameter); assay type: in vivo, rat; settings: for reduction of carrageenan-induced knee swelling: hydrocortisone experiment, 100 μg i.a. 30 min before carrageenan
Procedure: (§1) The activity of MEN16132, icatibant and cortisones was measured in an experimental model of arthritis induced by intra-articular injection of carrageenan which causes a strong inflammatory effect. […] The weight imbalance on the two weight-bearing paws, evaluated in a non-invasive way with the incapacitance test, measures the pain resulting from the joint inflammation. The diameter of the knee joint was also measured to measure the oedema.

[2] = system: carrageenan-induced joint pain; assay: Carrageenan-induced knee arthritis, joint pain (incapacitance test); assay type: in vivo, rat
Procedure: as §1

[3] = system: human airway muscle cells; assay: LPS-induced PGE2 release in cultures of human airway muscle cells; assay type: cell-based; settings: LPS 1 μg/ml for 24 hours
Procedure: Similar findings were obtained with an in vitro model, in cultures of human airway muscle cells stimulated for 24 hours with 1 μg/ml LPS, where an approximately 16-fold increase in the production of PGE2 was observed compared with the control.

[4] = system: cell infiltration in the airways caused by LPS; assay: LPS-induced airway inflammation, leucocytes in bronchoalveolar washing; assay type: in vivo, guinea pig; settings: for reduction of the number of inflammatory cells in the airways after LPS: aerosol of a 1 mg/ml solution for 15 min
[5] = system: symptomatic OA of the knee; settings: cited from earlier work
[6] = 100 μg i.a. 30 min before carrageenan, 6 hours after the irritant
[7] = 100 μg/25 μl i.a. 30 min before carrageenan, maximum effect 6 hours

Row | Compound | reduction of carrageenan-induced knee swelling [1] | reduction of joint pain [2, 6] | reduction of LPS-induced release of PGE2 ([3]; 100 nM) | reduction of the number of inflammatory cells in the airways after LPS [4] | reduction of carrageenan-induced oedema [1, 7] | duration of analgesic response after the treatment ([5]; intra-articular infiltration, 3×500 μg injections one week apart) | intensity of pain in the knee ([5]; phase II, single intra-articular administration 90 μg/1 ml, versus placebo) | reduction of joint pain ([2]; 10 μg i.a.) | reduction of LPS-induced release of PGE2 ([3]; 1 μM) | reduction of cell infiltration in the airways after LPS ([4]; aerosol of a 0.03 mg/ml solution for 15 min) | reduction of carrageenan-induced oedema ([1]; dexamethasone 10 μg i.a.)
1 | C[C@]12CCC(=O)C=C1CC[C@@H]1[C@@H]2[C@@H](O)C[C@@]2(C)[C@H]1CC[C@]2(O)C(=O)CO [hydrocortisone, Hydrocortisone] | −4±3% |  |  |  |  |  |  |  |  |  | 
2 | Cc1cc(C)c2cccc(OCc3c(Cl)ccc(S(=O)(=O)NC4(C(=O)N5CCN(C(=O)[C@@H](N)CCC[N+](C)(C)C)CC5)CCOCC4)c3Cl)c2n1 [MEN16132, (4-(S)-amino-5-(4-{4-[2,4-dichloro-3-(2,4-dimethyl-quinolin-8-yloxymethyl)-benzenesulphonylamino]-tetrahydro-pyran-4-carbonyl}-piperazin-1-yl)-5-oxo-pentyl]-trimethyl-ammonium] | 42±3% | 38±4% | 39% | 6% | 45±3% |  |  |  |  |  | 
3 | NC(N)=NCCC[C@@H](N)C(=O)N[C@@H](CCCN=C(N)N)C(=O)N1CCC[C@H]1C(=O)N1C[C@H](O)C[C@H]1C(=O)NCC(=O)N[C@@H](Cc1cccs1)C(=O)N[C@@H](CO)C(=O)N1Cc2ccccc2C[C@@H]1C(=O)N1[C@H](C(=O)N[C@@H](CCCN=C(N)N)C(=O)O)C[C@@H]2CCCC[C@@H]21 [icatibant, H-D-Arg-Arg-Pro-Hyp-Gly-Thi-Ser-D-Tic-Oic-Arg-OH] |  |  | 30% | 5% | 48±5% | up to 3 months | reduced the intensity of pain in the knee to a greater extent than the placebo |  |  |  | 
4 | C[C@@H]1C[C@H]2[C@@H]3CCC4=CC(=O)C=C[C@]4(C)[C@@]3(F)[C@@H](O)C[C@]2(C)[C@@]1(O)C(=O)CO [dexamethasone, Dexamethasone] |  | 44±3% |  |  | 57±3% |  |  | 14±4% | 45% | 8% | inactive
